Data: patent US10611777B2, “Imidazopyridazine compounds and their use” (HUTCHISON MEDIPHARMA LIMITED, priority 2014, dated 2020)
Where two headings read alike, the source gives them in different places.

Assays:
Assay type in all cases: biochemical
PI3K-δ (p110δ/p85α) = PI3K-δ (p110δ/p85α) (Homo sapiens (Human), UniProt O00329); assay: Fluorescent determination of PI3K enzyme activity (Transcreener KINASE Assay), PI3K-δ; conditions: for PI3K-δ IH%: inhibition rate at 1 μM
Protocol: (§1) PI3K kinases including p110α/p85α and p110γ were purchased from Invitrogen, p110δ/p85α and p110β/p85α were from Millipore.
(§2) It is a universal, homogenous, high throughput screening (HTS) technology using a far-red, competitive fluorescence polarization immunoassay based on the defection of ADP to monitor the activity of enzymes that catalyze group transfer reactions. […] The reaction mixture was added into desired wells of a 96-well plate. The plate was sealed and incubated for 80 min at room temperature. • 2) Next, 25 uL ADP detection mix was added into each well. The plate was sealed again and incubated for 60 min at room temperature. Then fluorescence polarization was measured by Tecan Infinite F500 Reader.
(§3) Data was analyzed and IC50 values were generated using the add-in software for Microsoft Excel, Xlfit™ (version 5.3).

PI3K-γ (p110γ) = PI3K-γ (p110γ) (Homo sapiens (Human), UniProt P48736); assay: Fluorescent determination of PI3K enzyme activity (Transcreener KINASE Assay), PI3K-γ; conditions: for PI3K-γ IH%: inhibition rate at 1 μM;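 as to all read-outs here: p110γ enzyme reaction for 80 min at room temperature, ADP formed measured by far-red competitive fluorescence polarization immunoassay, inhibition relative to wells with 2% DMSO only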
Sequence of PI3K-γ (p110γ) (P48736 whole entry, species assumed): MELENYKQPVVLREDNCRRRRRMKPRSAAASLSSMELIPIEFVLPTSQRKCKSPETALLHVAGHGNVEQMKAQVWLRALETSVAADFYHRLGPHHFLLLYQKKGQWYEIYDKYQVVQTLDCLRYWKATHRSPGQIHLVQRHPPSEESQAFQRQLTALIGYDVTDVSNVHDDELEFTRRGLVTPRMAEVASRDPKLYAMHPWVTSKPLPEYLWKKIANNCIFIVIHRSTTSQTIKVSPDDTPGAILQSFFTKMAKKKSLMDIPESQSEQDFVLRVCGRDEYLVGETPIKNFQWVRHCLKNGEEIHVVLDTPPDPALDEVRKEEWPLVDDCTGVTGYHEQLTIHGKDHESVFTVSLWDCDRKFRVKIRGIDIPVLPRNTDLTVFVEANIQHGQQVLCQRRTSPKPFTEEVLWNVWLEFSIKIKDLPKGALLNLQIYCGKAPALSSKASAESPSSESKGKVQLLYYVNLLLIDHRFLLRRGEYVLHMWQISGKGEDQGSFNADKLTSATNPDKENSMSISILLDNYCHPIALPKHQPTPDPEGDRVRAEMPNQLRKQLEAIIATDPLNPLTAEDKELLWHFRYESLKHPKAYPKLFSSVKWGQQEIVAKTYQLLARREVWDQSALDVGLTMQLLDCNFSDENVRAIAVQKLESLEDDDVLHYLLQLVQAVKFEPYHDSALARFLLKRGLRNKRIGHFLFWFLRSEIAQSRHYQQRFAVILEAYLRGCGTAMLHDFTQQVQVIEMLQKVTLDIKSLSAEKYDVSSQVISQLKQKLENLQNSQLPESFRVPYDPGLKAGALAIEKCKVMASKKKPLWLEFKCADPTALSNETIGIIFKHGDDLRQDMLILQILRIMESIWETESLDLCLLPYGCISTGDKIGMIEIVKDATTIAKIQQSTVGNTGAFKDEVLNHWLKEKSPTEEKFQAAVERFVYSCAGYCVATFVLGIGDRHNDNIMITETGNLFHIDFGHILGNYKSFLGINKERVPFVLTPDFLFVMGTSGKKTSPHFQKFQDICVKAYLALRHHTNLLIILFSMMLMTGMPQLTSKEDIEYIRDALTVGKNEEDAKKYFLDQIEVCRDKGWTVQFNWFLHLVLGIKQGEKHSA
Protocol: as §1, §2, §3

PI3K-β (p110β/p85α) = PI3K-β (p110β/p85α) (Homo sapiens (Human), UniProt P42338); assay: Fluorescent determination of PI3K enzyme activity (Transcreener KINASE Assay), PI3K-β; conditions: inhibition rate at 1 μM;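 also: Far-red fluorescence polarization immunoassay detecting ADP produced by the kinase, 80 min enzyme reaction at room temperature, inhibition relative to ADP formed in 2% DMSO control wells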
Sequence of PI3K-β (p110β/p85α) (P42338 whole entry, species assumed): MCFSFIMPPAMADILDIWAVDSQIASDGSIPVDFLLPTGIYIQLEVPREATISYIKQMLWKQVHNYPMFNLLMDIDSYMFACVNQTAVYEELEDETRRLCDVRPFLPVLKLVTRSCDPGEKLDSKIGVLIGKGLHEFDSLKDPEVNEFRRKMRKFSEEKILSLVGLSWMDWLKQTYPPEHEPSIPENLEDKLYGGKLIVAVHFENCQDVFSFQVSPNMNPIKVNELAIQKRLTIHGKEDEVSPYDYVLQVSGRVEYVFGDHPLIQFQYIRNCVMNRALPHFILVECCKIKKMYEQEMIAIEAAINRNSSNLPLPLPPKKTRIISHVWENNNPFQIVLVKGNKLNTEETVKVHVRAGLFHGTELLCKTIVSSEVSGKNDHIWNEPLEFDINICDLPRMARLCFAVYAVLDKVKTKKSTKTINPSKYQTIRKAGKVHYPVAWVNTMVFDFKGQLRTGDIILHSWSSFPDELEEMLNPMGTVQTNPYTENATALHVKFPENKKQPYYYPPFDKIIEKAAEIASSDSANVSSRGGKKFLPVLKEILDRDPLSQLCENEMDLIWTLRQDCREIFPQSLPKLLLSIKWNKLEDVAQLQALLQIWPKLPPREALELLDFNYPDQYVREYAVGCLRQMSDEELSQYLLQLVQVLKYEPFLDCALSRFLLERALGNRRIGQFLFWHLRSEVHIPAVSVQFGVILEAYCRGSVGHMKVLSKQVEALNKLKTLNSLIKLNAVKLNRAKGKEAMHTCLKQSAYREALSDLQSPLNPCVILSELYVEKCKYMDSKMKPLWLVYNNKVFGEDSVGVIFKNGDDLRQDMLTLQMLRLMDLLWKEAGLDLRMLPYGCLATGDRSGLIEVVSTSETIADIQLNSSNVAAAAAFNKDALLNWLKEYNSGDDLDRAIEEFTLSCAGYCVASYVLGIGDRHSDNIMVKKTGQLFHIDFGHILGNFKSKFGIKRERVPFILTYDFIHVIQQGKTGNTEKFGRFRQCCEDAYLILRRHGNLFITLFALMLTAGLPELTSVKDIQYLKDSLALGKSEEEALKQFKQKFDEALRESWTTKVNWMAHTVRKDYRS
Sequence of PI3K-β (p110β/p85α) (P27986 whole entry partner, species assumed): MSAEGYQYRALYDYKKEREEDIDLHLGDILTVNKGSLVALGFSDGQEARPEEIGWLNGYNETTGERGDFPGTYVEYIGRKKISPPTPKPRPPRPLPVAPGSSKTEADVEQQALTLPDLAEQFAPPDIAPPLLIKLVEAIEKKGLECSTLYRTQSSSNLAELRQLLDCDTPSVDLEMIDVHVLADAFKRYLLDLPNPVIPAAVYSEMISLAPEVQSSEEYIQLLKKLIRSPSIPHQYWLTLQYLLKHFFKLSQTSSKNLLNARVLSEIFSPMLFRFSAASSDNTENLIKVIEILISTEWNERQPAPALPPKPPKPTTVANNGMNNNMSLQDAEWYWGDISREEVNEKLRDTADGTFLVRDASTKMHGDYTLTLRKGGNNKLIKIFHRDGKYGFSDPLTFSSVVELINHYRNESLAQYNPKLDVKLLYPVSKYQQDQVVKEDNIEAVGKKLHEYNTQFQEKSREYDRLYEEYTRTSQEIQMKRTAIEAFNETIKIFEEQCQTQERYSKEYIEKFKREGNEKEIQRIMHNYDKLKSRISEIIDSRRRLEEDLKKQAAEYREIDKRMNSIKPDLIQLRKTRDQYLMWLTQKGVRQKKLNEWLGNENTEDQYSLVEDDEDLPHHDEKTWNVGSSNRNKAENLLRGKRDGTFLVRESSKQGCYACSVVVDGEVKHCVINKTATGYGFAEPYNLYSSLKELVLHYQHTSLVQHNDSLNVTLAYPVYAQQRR
Protocol: as §1, §2, §3

PI3K-α (p110α/p85α) = PI3K-α (p110α/p85α) (Homo sapiens (Human), UniProt P42336); assay: Fluorescent determination of PI3K enzyme activity (Transcreener KINASE Assay), PI3K-α; conditions: inhibition rate at 1 μM
Sequence of PI3K-α (p110α/p85α) (P42336 whole entry, species assumed): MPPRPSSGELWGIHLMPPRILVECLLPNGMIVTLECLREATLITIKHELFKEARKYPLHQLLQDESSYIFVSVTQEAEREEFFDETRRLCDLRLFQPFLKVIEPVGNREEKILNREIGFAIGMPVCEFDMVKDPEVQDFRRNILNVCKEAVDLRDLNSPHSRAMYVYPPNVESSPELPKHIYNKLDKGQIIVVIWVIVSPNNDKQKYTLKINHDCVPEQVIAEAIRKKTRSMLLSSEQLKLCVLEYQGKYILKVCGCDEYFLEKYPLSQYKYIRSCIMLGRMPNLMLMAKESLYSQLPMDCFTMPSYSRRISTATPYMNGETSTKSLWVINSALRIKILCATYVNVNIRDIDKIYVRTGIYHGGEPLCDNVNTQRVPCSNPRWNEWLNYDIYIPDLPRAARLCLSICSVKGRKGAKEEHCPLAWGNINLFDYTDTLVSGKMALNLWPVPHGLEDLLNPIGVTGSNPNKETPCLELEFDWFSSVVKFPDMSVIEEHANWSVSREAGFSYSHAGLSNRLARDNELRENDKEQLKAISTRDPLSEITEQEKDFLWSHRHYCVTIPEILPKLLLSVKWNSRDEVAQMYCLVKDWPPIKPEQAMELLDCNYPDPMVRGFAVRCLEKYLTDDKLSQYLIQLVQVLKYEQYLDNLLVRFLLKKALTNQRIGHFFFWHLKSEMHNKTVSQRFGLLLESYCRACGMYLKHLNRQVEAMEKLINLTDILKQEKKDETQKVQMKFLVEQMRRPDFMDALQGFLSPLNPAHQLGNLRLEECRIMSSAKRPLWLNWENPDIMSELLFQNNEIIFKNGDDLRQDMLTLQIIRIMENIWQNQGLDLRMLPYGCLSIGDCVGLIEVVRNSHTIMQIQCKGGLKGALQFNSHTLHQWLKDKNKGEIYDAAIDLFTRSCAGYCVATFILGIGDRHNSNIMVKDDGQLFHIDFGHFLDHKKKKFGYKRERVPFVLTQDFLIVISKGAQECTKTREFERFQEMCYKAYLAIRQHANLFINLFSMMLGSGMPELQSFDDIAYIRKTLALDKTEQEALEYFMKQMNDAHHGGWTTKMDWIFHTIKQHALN
Sequence of PI3K-α (p110α/p85α) (P27986 whole entry partner, species assumed): as the sequence (P27986 whole entry partner, species assumed) above
Protocol: Inhibition rates were calculated as follow: IH %=(ADP amount under 2% DMSO well−ADP amount under test compound well)/ADP amount under 2% DMSO well×100%.

Sequence of PI3K-δ (p110δ/p85α) (O00329 whole entry, species assumed): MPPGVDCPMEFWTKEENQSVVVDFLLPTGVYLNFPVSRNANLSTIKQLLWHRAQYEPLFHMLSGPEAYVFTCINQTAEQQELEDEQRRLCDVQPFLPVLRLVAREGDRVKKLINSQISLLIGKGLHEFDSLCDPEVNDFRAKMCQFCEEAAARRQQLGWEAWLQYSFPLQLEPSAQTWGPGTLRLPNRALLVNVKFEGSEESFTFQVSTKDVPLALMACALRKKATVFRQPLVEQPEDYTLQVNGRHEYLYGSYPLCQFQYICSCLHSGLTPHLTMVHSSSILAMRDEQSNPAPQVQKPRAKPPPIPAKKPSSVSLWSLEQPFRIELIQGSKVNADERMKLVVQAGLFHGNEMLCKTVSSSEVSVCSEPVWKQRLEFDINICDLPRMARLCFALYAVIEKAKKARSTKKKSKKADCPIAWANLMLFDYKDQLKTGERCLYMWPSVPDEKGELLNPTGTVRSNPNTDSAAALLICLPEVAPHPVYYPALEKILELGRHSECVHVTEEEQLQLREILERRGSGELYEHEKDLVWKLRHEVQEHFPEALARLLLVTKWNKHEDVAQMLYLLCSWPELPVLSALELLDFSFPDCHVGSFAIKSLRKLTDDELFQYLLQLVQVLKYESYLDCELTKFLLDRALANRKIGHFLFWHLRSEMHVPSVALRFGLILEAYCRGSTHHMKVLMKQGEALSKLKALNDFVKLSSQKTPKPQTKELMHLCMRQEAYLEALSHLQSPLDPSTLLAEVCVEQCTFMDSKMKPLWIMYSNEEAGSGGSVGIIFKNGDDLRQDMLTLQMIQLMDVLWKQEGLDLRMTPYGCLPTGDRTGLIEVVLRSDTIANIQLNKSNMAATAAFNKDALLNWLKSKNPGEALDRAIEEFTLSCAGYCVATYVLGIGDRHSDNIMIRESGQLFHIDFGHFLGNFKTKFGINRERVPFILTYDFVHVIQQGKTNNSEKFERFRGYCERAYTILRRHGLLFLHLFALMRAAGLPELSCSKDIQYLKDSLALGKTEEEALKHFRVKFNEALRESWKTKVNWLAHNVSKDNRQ
Sequence of PI3K-δ (p110δ/p85α) (P27986 whole entry partner, species assumed): as the sequence (P27986 whole entry partner, species assumed) above

With `CCC(Nc1ncnc(N)c1C#N)c1cc2ncc(Cl)n2nc1-c1ccccn1` (stereo not shown) [Compound 28] the “PI3K-δ IH%” value (PI3K-δ (p110δ/p85α)) was 39.8%, the “PI3K-γ IH%” value (PI3K-γ (p110γ)) was 18.8% and the “PI3K-β IH%” value (PI3K-β (p110β/p85α)) was 11.1%.

For `C[C@H](Nc1nc(N)ncc1C#N)c1cc2ncc(Cl)n2nc1-c1ccccc1` [Compound 34], the “PI3K-δ IH%” value (PI3K-δ (p110δ/p85α)) was 8.3%, the “PI3K-γ IH%” value (PI3K-γ (p110γ)) was −19.3% and the “PI3K-β IH%” value (PI3K-β (p110β/p85α)) was 3.7%.

In the case of `C[C@H](Nc1ncnc(N)c1C#N)c1cc2ncc(Cl)n2nc1-c1ccc2c(c1)OCCO2` [Compound 70], the IC50 (PI3K-δ (p110δ/p85α)) is reported as 22 nM, the IC50 (PI3K-γ (p110γ); read-out: PI3K-γ IC50) is reported as 1980 nM and the “PI3K-β IH%” value (PI3K-β (p110β/p85α)) is reported as 37.4%.

`Cc1cnc2cc([C@H](C)Nc3ncnc(N)c3C#N)c(-c3ccccc3)nn12` [Compound 22] was tested, and the “PI3K-α IH%” value (PI3K-α (p110α/p85α)) was 13.6% and the “PI3K-β IH%” value (PI3K-β (p110β/p85α)) was 76.7%.

With `CCC(Nc1ncnc2[nH]cnc12)c1cc2ncc(Cl)n2nc1-c1ccccc1` (stereo not shown) [Compound 14] the “PI3K-δ IH%” value (PI3K-δ (p110δ/p85α)) was 51.0%, the “PI3K-γ IH%” value (PI3K-γ (p110γ)) was 22.5% and the “PI3K-β IH%” value (PI3K-β (p110β/p85α)) was 3.2%.

In the case of `C[C@H](Nc1nc(O)nc(N)c1C#N)c1cc2ncc(Cl)n2nc1-c1ccccc1` [Compound 55, (S)-4-amino-6-((1-(3-chloro-6-phenylimidazo[1,2-b]pyridazin-7-yl)ethyl)amino)-2-hydroxypyrimidine-5-carbonitrile], the “PI3K-δ IH%” value (PI3K-δ (p110δ/p85α)) is reported as 60.3%, the “PI3K-γ IH%” value (PI3K-γ (p110γ)) is reported as −4.7% and the “PI3K-β IH%” value (PI3K-β (p110β/p85α)) is reported as 8.5%.

With `C[C@H](Nc1ncnc(N)c1C(=O)N(C)C)c1cc2ncc(Cl)n2nc1-c1ccccc1` [Compound 56] the “PI3K-δ IH%” value (PI3K-δ (p110δ/p85α)) was 21.0%, the “PI3K-γ IH%” value (PI3K-γ (p110γ)) was 1.0% and the “PI3K-β IH%” value (PI3K-β (p110β/p85α)) was 9.0%.

`C[C@@H](Nc1ncnc(N)c1C#N)c1cc2ncc(Cl)n2nc1-c1ccc2scnc2c1` [Compound 75] was tested, and the “PI3K-δ IH%” value (PI3K-δ (p110δ/p85α)) was 1.0%, the “PI3K-γ IH%” value (PI3K-γ (p110γ)) was 31.7% and the “PI3K-β IH%” value (PI3K-β (p110β/p85α)) was −7.1%.

In the case of `CCC(Nc1ncnc2[nH]cnc12)c1cc2ncc(Cl)n2nc1-c1ccccc1F` (single isomer, unassigned) [Compound 25], the IC50 (PI3K-δ (p110δ/p85α)) is reported as 4 nM and the IC50 (PI3K-γ (p110γ)) is reported as 2590 nM.

`C[C@H](Nc1ncnc(N)c1-c1nn[nH]n1)c1cc2ncc(Cl)n2nc1-c1ccccc1` [Compound 21] was tested, and the “PI3K-α IH%” value (PI3K-α (p110α/p85α)) was 21.7%.

`C[C@@H](Nc1ncnc(N)c1C#N)c1cc2ncc(Cl)n2nc1-c1ccccn1` [Compound 7, (R)-4-amino-6-((1-(3-chloro-6-(pyridin-2-yl)imidazo[1,2-b]pyridazin-7-yl)ethyl)amino)pyrimidine-5-carbonitrile] was tested, and the “PI3K-δ IH%” value (PI3K-δ (p110δ/p85α)) was 12.5%, the “PI3K-γ IH%” value (PI3K-γ (p110γ)) was 61.1% and the “PI3K-β IH%” value (PI3K-β (p110β/p85α)) was −2.7%.

With `CC[C@@H](Nc1ncnc(N)c1C#N)c1cc2ncc(Cl)n2nc1-c1ccccc1` [Compound 5, (R)-4-amino-6-((1-(3-chloro-6-phenylimidazo[1,2-b]pyridazin-7-yl)propyl)amino)pyrimidine-5-carbonitrile] the “PI3K-δ IH%” value (PI3K-δ (p110δ/p85α)) was 47.3% and the “PI3K-β IH%” value (PI3K-β (p110β/p85α)) was −10.7%.

`C[C@H](Nc1ncnc(N)c1C#N)c1cc2ncc(Cl)n2nc1-c1ccc2ccn(C)c2c1` [Compound 76] was tested, and the “PI3K-δ IH%” value (PI3K-δ (p110δ/p85α)) was 48.9%, the “PI3K-γ IH%” value (PI3K-γ (p110γ)) was −14.3% and the “PI3K-β IH%” value (PI3K-β (p110β/p85α)) was 54.9%.

For `COc1cc(-c2c(N)ncnc2N[C@@H](C)c2cc3ncc(Cl)n3nc2-c2ccccc2)ccn1` [Compound 50], the “PI3K-δ IH%” value (PI3K-δ (p110δ/p85α)) was 68.9%, the “PI3K-γ IH%” value (PI3K-γ (p110γ)) was 5.5% and the “PI3K-β IH%” value (PI3K-β (p110β/p85α)) was −14.1%.
